In patent publication US6818407B2, “Anti-endotoxic antimicrobial cationic peptides and methods of use therfor” (priority 1998, dated 2004):
Ends that are not written are not given here.

Tests used:
Assay type in all cases: cell-based
[1] = test system: β-lactamase derepressed mutant (H547) of P. aeruginosa; experiment: microbe, parasite or virus in culture; settings: Pseudomonas aeruginosa, read-out: MIC B MIC of Carb
Experimental: (§1) The biological activity of the peptides can be determined by standard methods known to those of skill in the art, such as Aminimal inhibitory concentration (MIC)≅ assay described in the present examples, whereby the lowest concentration at which no change in OD is observed for a given period of time is recorded as MIC. Alternatively, Afractional inhibitory concentration (FIC)≅ is also useful for determination of synergy between the peptides of the invention, or the peptides in combination with known antibiotics. FICs are performed by checkerboard titrations of peptides in one dimension of a microtiter plate, and of antibiotics in the other dimension, for example. The FIC is calculated by looking at the impact of one antibiotic on the MIC of the other and vice versa. […] Preferably, an FIC of less than 0.5 is obtained for synergism. As used herein, FIC can be determined as follows: [formula]
(§2) To test whether the peptides of the invention synergize with various antibiotics, the following method was employed. Fractional Inhibitory Concentration (FIC) was used to determine synergy of peptides combined with antibiotics (e.g., carbenicillin/ciprofloxacin) against Pseudomonas aeruginosa. The following methodology was followed:
(§3) (1) Determination of MIC of cationic peptides (MIC A):
(§4) 100 μl Mueller Hinton broth (MHB) was added per well
(§5) 12.5 μl of 10× test concentration peptide was added per well to get final peptide concentration of e.g., 128, 64, 32, . . . 0.025 μg/ml from row 1 to 11;
(§6) 10 μl of 10^−4 dilution of overnight bacterial culture was added per well.
(§7) (2) Determination of MIC of Carbenicillin/Ciprofloxacin (MIC B):
(§8) 100 μl MHB was added per well;
(§9) 100 μl of 2× test concentration of antibiotic was added in the first well of the row, and doubling dilutions performed across the plate from column 1 to 11;
(§10) (3) Determination of MIC of antibiotics (B) when combined with peptides at concentration A:
(§11) 100 μl Carbenicillin (512 μg/ml) or Ciprofloxacin (8 μg/ml) was added in each well of column 1; doubling dilutions were performed across the plate;
(§12) 100 μl of the peptide was added in all wells of row 1, mixed, and 100 μl withdrawn and added to row 2, etc., creating a checkerboard titration.
(§13) 10 μl of 10^−4 dilution of overnight culture was added per well;
(§14) plates were incubated at 37EC for 18-24 hours. Combination MIC values A and B were taken as the lowest concentration of drug that reduced bacterial growth by more than 50% in any given column.
(§15) (4) FIC index=FICA+FICB=(A)/MIC A+(B)/MIC B. An FIC index of approximately 0.5 or less indicates synergy; 1.0 reflects additivity; and >1.0 indicates antagonism.

[2] = test system: mutant (Nal B, H744) of P. aeruginosa; experiment: microbe, parasite or virus in culture; settings: Pseudomonas aeruginosa, read-out: MIC B MIC of Cipro
Experimental: as §1, §2, §3, §4, §5, §6, §7, §8, §9, §10, §11, §12, §13, §14, §15

[3] = test system: P. aeruginosa efflux mutant (Nal B, H744); experiment: microbe, parasite or virus in culture
Experimental: as §1, §2, §3, §4, §5, §6, §7, §8, §9, §10, §11, §12, §13, §14, §15

[4] = test system: Pseudomonas aeruginosa outer membrane barrier altered (Z61); settings: Mueller Hinton Broth
Experimental: as §1
(§16) These peptides varied in activity (Table 11), however, the C-terminally capped pleurocidin especially and its N-terminally capped lysine derivative had much better activities against a variety of bacteria including Vibrio anguillarum (Va), Aeromonas salmonicida (As), Staphylococcus epidermidis (C621), Salmonella typhimurium wild type (C587) and phoP phoQ mutant (C610), and Pseudomonas aeruginosa wild type (K799) and outer membrane barrier altered (Z61). The antimicrobial peptide CEME, a fusion peptide made from portions of an insect defensin ceropin A and the bee venom peptide melittin (Piers and Hancock, Mol. Microbiol., 12:951-8, 1994), as well as the known antibiotics polymyxin B and gentamicin were used as controls. Replacing the pleurocidin N-terminus with the dermaseptin N-terminus had no effect. Replacing pleurocidin N-terminus with the ceratoxin N-terminus reduced activity. […] Amidating the C-terminus improved antimicrobial activity. Replacing the pleurocidin C-terminus with the misgurin C-terminus had no effect.
(§17) Bacteria included Vibrio anguillarum (Va), Aeromonas salmonicida (As), Staphylococcus epidermidis (C621), Salmonella typhimurium wild type (C587) and phoP phoQ mutant (C6 10), and Pseudomonas aeruginosa wild type (K799) and outer membrane barrier altered (Z61).

[5] = test system: Pseudomonas aeruginosa wild type (K799); settings: Mueller Hinton Broth
Experimental: as §1, §16, §17

[6] = test system: Aeromonas salmonicida (As); settings: Mueller Hinton Broth
Experimental: as §1, §16, §17

[7] = test system: Salmonella typhimurium phoP phoQ mutant (C610); settings: Mueller Hinton Broth
Experimental: as §1, §16, §17

[8] = test system: Staphylococcus epidermidis (C621); settings: Mueller Hinton Broth
Experimental: as §1, §16, §17

[9] = test system: Salmonella typhimurium wild type (C587); settings: Mueller Hinton Broth
Experimental: as §1, §16, §17

[10] = test system: Vibrio anguillarum (Va); settings: Mueller Hinton Broth
Experimental: as §1, §16, §17

| Molecule | MIC Z61 [4] | MIC K799 [5] | MIC As [6] | MIC C610 [7] | MIC C621 [8] | MIC C587 [9] | MIC Va [10] | further results |
| --- | --- | --- | --- | --- | --- | --- | --- | --- |
| CC1(C)S[C@@H]2[C@H](NC(=O)C(C(=O)O)c3ccccc3)C(=O)N2[C@H]1C(=O)O (stereo partly drawn) [Carb, Carbenicillin, reference compound] | – | – | – | – | – | – | – | MIC [1]: 64 µg/mL |
| O=C(O)c1cn(C2CC2)c2cc(N3CCNCC3)c(F)cc2c1=O [Cipro, ciprofloxacin, reference compound] | – | – | – | – | – | – | – | MIC [2]: 0.25 µg/mL |
| CCn1cc(C(=O)O)c(=O)c2ccc(C)nc21 [Nal, nalidixic acid, reference compound] | – | – | – | – | – | – | – | MIC ([3]; Pseudomonas aeruginosa, read-out: MIC B MIC of Nal): 3200 µg/mL; MIC B MIC of Nal ([3]; nalidixic acid alone, efflux mutant Nal B, H744, unit from method): 3200 µg/mL |
| ALWKTMLKKAAHVGKHVGKAALGAAARRRK [DER-M] | 8 µg/mL | 64 µg/mL | 2 µg/mL | 0.5 µg/mL | 32 µg/mL | 32 µg/mL | >64 µg/mL | – |
| ALWKTMLKKAAHVGKHVGKAALTHYL-NH2 [P-DER] | 8 µg/mL | 16 µg/mL | 1 µg/mL | 0.5 µg/mL | 4 µg/mL | 4 µg/mL | 4 µg/mL | – |
